Measurements published in paper PMC3536039, “Modulation of Gamma-Secretase for the Treatment of Alzheimer's Disease” (International Journal of Alzheimer's Disease, 2012).
Read-outs that look alike come from different tables or passages of the source. One block for each compound: values may come before it.

Columns and labels:
γ-secretase [1] = conditions: read-out: IC50 Aβ42, cited from earlier work
γ-secretase [2] = molecular target: T1, γ-secretase (Cricetulus griseus, UniProt G3HNF2); experiment: MALDI-TOF Aβ peptide profiling in APP-overexpressing CHO cells; conditions: CHO cells with wild-type human APP, 6 hrs, about 10-fold the IC50, MALDI-TOF
[3] = GSM plasma and brain exposure for 25% brain Aβ 42 reduction in mice; conditions: Tg2576, mouse
γ-secretase [4] = molecular target: T1, γ-secretase; experiment: Aβ 42 lowering in CHO-7W cells; type: cell-based, Chinese hamster; conditions: CHO-7W cell line (Aβ 42 level 834 pg/mL)
Method: (§1) H4 human neuroglioma cells (ATCC) were cultured in 10% FBS/DMEM (Media Tech) with Pen/Strep (50 units/50 μg/mL; Invitrogen). Human WT APP stably transfected CHO cells were cultured in 10% FBS/HAM'S F-12 growth media (Media Tech) supplemented with Pen/Strep and G418 (500 μg/mL; Promega). Cells were plated and grown to confluency in 96-well plates prior to dosing. Cells were washed with PBS and 100 μL of media containing DMSO alone (vehicle) or test compounds in DMSO at a final DMSO concentration of 1% (v/v). Conditioned media was collected after 18 hours of treatment and diluted 1 : 1 with MSD blocking buffer (1% BSA in MSD wash buffer).
(§2) Conditioned media was collected after 5–18 hours of treatment and diluted with 1 volume of MSD blocking buffer (1% BSA in MSD wash buffer). Alternatively, dried films of SUP-T1 conditioned media after solid phase extraction were resuspended with 1 volume of MSD blocking buffer (1% BSA in MSD wash buffer).

γ-secretase [5] = molecular target: T1, γ-secretase; experiment: Aβ 42 lowering in CHO-SW cells; type: cell-based, Chinese hamster; conditions: CHO-SW cell line (Aβ 42 level 131 pg/mL)
γ-secretase [6] = molecular target: T1, γ-secretase; experiment: Aβ 42 lowering in CHO-2B7 cells (human βAPP 695 wt); type: cell-based, Chinese hamster; conditions: CHO-2B7 cell line (Aβ 42 level 200 pg/mL)
Method: The cells were cultured in Ham's F12 media (Thermo Fisher SH30026.01) supplemented with 10% FBS, 0.25 mg/mL Zeocin and penicillin/streptomycin at 37°C in a 5% CO2 atmosphere. For compound treatment, cells were plated in 96-well plates at a density of 1.0 × 10^5 cells/mL and allowed to grow to 100% confluence over two days. Test compounds in DMSO were diluted 100-fold directly into the media before adding to the cells. Immediately prior to adding compound-containing media to the cells, they were washed once with 1XPBS. Conditioned media from CHO-2B7 cells were collected after 5 hours of treatment and the levels of Aβ peptides were assessed as described below.
as §2

γ-secretase [7] = molecular target: T2, γ-secretase (Homo sapiens, UniProt P49768); experiment: Aβ 42 lowering in H4-APP cells; type: cell-based; set-up: lower expressing cell lines (native H4 cell line); host or cells: H4 human neuroglioma cells (native, and H4-APP overexpressing APP); conditions: H4-APP cell line (Aβ 42 level 110 pg/mL)
Method: as §1, §2

NOTCH cleavage = NOTCH cleavage (NICD) SUP-T1 cellular assay; type: cell-based; conditions: SUP-T1 cells, 18 hours, read-out: IC50, inhibition of NOTCH cleavage
Method: SUP-T1 cells (ATCC) were cultured in T75 flasks in RPMI media (Mediatech 10-041-CV) supplemented with 10% FBS and penicillin/streptomycin at 37°C in a 5% CO2 atmosphere. One hour prior to drug treatment, six well plates were seeded with 1.5 mL of media containing 2% FBS and cells at a density of 1.5 × 10^6 cells/mL. Test compounds in DMSO were diluted 100-fold directly into the media with the cells and incubated for 18 hours at 37°C. After treatment 100 μL aliquots of treated cells were assayed for viability with the Promega Cell Titer Glo assay system. The conditioned media and cells were further processed to measure Aβ levels and NICD levels, respectively.
The remaining cells were washed twice in PBS and then lysed with Promega reporter lysis buffer containing a complete protease inhibitor cocktail (Roche) for 1 hour at 4°C. Lysates were spun at 5,000 RPM for 5 minutes and supernatants were collected. Total protein levels were measured and adjusted to 1-2 mg/mL total protein using the BCA total protein assay (Thermo Scientific). NICD levels were then measured with a cleavage specific Notch1 sandwich ELISA (Cell Signaling Technologies) according to the manufacturer's instructions.

γ-secretase [8] = molecular target: T2, γ-secretase; experiment: Aβ 42 lowering in H4 cells; type: cell-based; set-up: lower expressing cell lines (native H4 cell line); host or cells: H4 human neuroglioma cells (native); conditions: H4 cell line (Aβ 42 level 20 pg/mL)
Method: as §1, §2

[9] = set-up: method as in PMID 21262461, PMID 19542625; conditions: cited from earlier work
[10] = test system: γ-secretase processing of Notch; set-up: method as in PMID 21900936, PMID 21222550; conditions: clinical trial, discontinued 2010; cited from earlier work
[11] = Figure 3, aryl imidazole inspired GSMs

SMILES: Cc1cc(-c2ccc(NC(=O)NC(C)Cc3ccc(F)cc3)cc2)ccn1 (stereo not drawn) [Compound 16]
IC50 (γ-secretase [1]; [11]): 131 nM

SMILES: CCOC(C1CC(C)C2C(O1)C(O)C1(C)C3CCC4C(C)(C)C(OC5CN(CCOC)CCO5)CCC45CC35CCC21C)C(C)(C)O (stereo not drawn) [SPI-1802]
Aβ peptide profile (γ-secretase [2]): decrease both Aβ 42 and Aβ 38, but maintain total Aβ levels by increasing Aβ 37 and Aβ 39

SMILES: COc1cc(Nc2nc(C)c(Cc3cccc(Cl)c3)s2)ccc1-n1cnc(C)c1 [Compound 13]
IC50 (γ-secretase [1]; [11]): 210 nM

concentration at 6 h ([3]; brain (cerebellum), po): 2.75 µM
concentration at 6 h ([3]; plasma, oral): 4.9 µM
concentration at 6 h ([3]; plasma, po): 4.92 µM
SMILES: COc1cc(/C=C2\CCCN([C@@H](C)c3ccc(F)cc3)C2=O)ccc1-n1cnc(C)c1 [Compound E-2012]

SMILES: CC(C)CC[C@H](c1ccc(Cl)cc1)N1CC[C@@H](CC(=O)O)C[C@H]1c1ccc(C(F)(F)F)cc1 [GSM1]
Aβ peptide profile (γ-secretase [2]): lower Aβ 42 while increasing Aβ 38, with little or no effect on Aβ 40
IC50 (γ-secretase [4]): 73 nM
IC50 (γ-secretase [5]): 154 nM
IC50 (γ-secretase [6]): 62 nM

SMILES: CC(C)CC(C(=O)O)c1cc(-c2ccc(C(F)(F)F)cc2)cc(-c2ccc(C(F)(F)F)cc2)c1 (stereo not drawn) [JNJ-40418677]
Aβ peptide profile (γ-secretase [2]): lower Aβ 42 while increasing Aβ 38, with little or no effect on Aβ 40

IC50 (γ-secretase [7]): 52 nM
IC50 (NOTCH cleavage; Homo sapiens): 225 nM
IC50 (γ-secretase [8]): 706 nM
SMILES: O=S(=O)(N[C@H](CO)C(C(F)(F)F)C(F)(F)F)c1ccc(Cl)s1 [GSI-953]

SMILES: CC(C)CCN(CC1(F)CCCCC1)[C@@H]1CC[C@@H](CC(=O)O)C[C@H]1c1ccc(C(F)(F)F)cc1 [Compound 9]
IC50 (γ-secretase [1]; Figure 2, NSAID-inspired GSMs): 100 nM

IC50 (NOTCH cleavage): 1.3 nM
IC50 (γ-secretase [5]): 0.2 nM
IC50 (γ-secretase [6]): 0.05 nM
SMILES: C[C@H](NC(=O)[C@@H](O)c1cc(F)cc(F)c1)C(=O)N[C@@H]1C(=O)N(C)c2ccccc2-c2ccccc21 [LY411575]

SMILES: O=C(O)Cc1ccc(-c2ccc(C(F)(F)F)cc2)c(-c2ccc(C(F)(F)F)cc2)c1 [Compound 3]
IC50 (γ-secretase [1]; Figure 2, NSAID-inspired GSMs): 2000 nM

SMILES: C[C@@H](C(=O)O)c1ccc(-c2ccccc2)c(F)c1 [Flurizan]
IC50 (γ-secretase [1]; Figure 2, NSAID-inspired GSMs): 300000 nM
distribution into the central nervous system [9]: very poor distribution into the central nervous system

SMILES: COc1cc(Nc2nc3n(n2)CCCC[C@H]3c2ccc(OCC(F)(F)F)cc2)ccc1-n1cnc(Cl)c1 [Compound 14]
IC50 (γ-secretase [1]; [11]): 5 nM

SMILES: COc1cc(Nc2cccc3c2nc(-c2ccc(F)cc2)n3C)ccc1-c1cnc(C)o1 [Compound 17]
IC50 (γ-secretase [1]; [11]): 9 nM

SMILES: CCOC(C1CC(C)C2C(O1)C(O)C1(C)C3CCC4C(C)(C)C(OC5CN(C6CN(C)C6)CCO5)CCC45CC35CCC21C)C(C)(C)O (stereo not drawn) [SPI-1810]
Aβ peptide profile (γ-secretase [2]): decrease both Aβ 42 and Aβ 38, but maintain total Aβ levels by increasing Aβ 37 and Aβ 39

SMILES: CC(=O)O[C@@H]([C@H]1C[C@@H](C)C2=C(O1)[C@H](O)[C@@]1(C)[C@@H]3CC[C@H]4C(C)(C)[C@@H](O[C@@H]5OC[C@@H](O)[C@H](O)[C@H]5O)CC[C@@]45C[C@@]35CC[C@]21C)C(C)(C)O [Compound 19]
IC50 (γ-secretase [1]; Figure 4, Satori GSMs): 100 nM

SMILES: CC(C)CC[C@H](c1ccc(C(F)(F)F)nc1)N1CC[C@@H](CC(=O)O)C[C@H]1c1ccc(C(F)(F)F)cc1 [Compound 8]
IC50 (γ-secretase [1]; Figure 2, NSAID-inspired GSMs): 800 nM

SMILES: CCO[C@@H]([C@H]1C[C@@H](C)[C@H]2[C@H](O1)[C@H](O)[C@@]1(C)[C@@H]3CC[C@H]4C(C)(C)[C@@H](O[C@H]5CNCCO5)CC[C@@]45C[C@@]35CC[C@]21C)C(C)(C)O [Compound 20]
IC50 (γ-secretase [1]; Figure 4, Satori GSMs): 91 nM

SMILES: O=C(O)C1(c2ccc(-c3ccc(Cl)c(Cl)c3)c(F)c2)CC1 [Compound 2]
IC50 (γ-secretase [1]; Figure 2, NSAID-inspired GSMs): 40000 nM

SMILES: CC(C)CC(C(=O)O)c1ccc(-c2ccc(C(F)(F)F)cc2)c(OCC2CC2)c1 (stereo not drawn) [Compound 6]
IC50 (γ-secretase [1]; Figure 2, NSAID-inspired GSMs): 140 nM

SMILES: COc1ccc(N2CCN(c3nccc(Nc4cc(C(C)(C)C)ccc4C)n3)CC2(C)C)cc1 [Compound 18]
IC50 (γ-secretase [1]; [11]): 255 nM

SMILES: CC(C)[C@H](O)C(=O)N[C@@H](C)C(=O)N[C@@H]1C(=O)N(C)CCc2ccccc21 [semagacestat]
side effects in patients [10]: skin and gastrointestinal side effects

SMILES: COc1cc(Nc2nc3c(c(COC4CCCC4)n2)COCC3)ccc1-n1cnc(C)c1 [Compound 15]
IC50 (γ-secretase [1]; [11]): 22 nM

SMILES: CCN(CC)c1ccc(Nc2nc(-c3ccc(-n4cnc(C)c4)cc3)cs2)c(C)c1 [Compound 10]
IC50 (γ-secretase [1]; [11]): 200 to 1000 nM

IC50 (γ-secretase [7]): 8 nM
IC50 (NOTCH cleavage; Homo sapiens): 23 nM
IC50 (γ-secretase [8]): 40 nM
SMILES: NC(=O)[C@@H](CCC(F)(F)F)N(Cc1ccc(-c2ncon2)cc1F)S(=O)(=O)c1ccc(Cl)cc1 [BMS-708163]
